Legend:
[1] = Drug uptake in human 22Rv1 cells at 3.7 10^-2MBq pretreated with 2-PMPA for 30 mins followed by compound addition and measured after 4 hr relative to control; assay type: ADME, cell-based; settings: cwr22r
[2] = Drug uptake in human 22Rv1 cells at 3.7 10^-2MBq pretreated with 2-PMPA for 30 mins followed by compound addition and measured after 1 hr; assay type: ADME, cell-based; settings: cwr22r
[3] = Stability of the compound in PBS buffer measured after 4 hrs by radio-HPLC analysis; assay type: physicochemical
[4] = Drug uptake in human 22Rv1 cells at 3.7 10^-2MBq measured after 4 hrs relative to control; assay type: ADME, cell-based; settings: cwr22r
[5] = Drug uptake in human 22Rv1 cells at 3.7 10^-2MBq measured after 1 hr; assay type: ADME, cell-based; settings: cwr22r
[6] = Stability in mouse plasma measured after 4 hrs by radio-HPLC analysis; assay type: ADME, cell-free
[7] = Drug uptake in mouse tumor xenografted with human 22Rv1 cells at 7.4 MBq, iv measured after 2 hrs by PET imaging analysis relative to control; assay type: ADME, organism-based, Neoplasm, CWR22R; settings: in vivo

SMILES: O=C(O)CC[C@H](NC(=O)N[C@@H](CCCCNC(=O)[C@H](Cc1ccc2ccccc2c1)NC(=O)c1ccc(CNC(=O)[C@H](CCC(=O)O)NC(=O)[C@H](CCC(=O)O)NC(=O)c2ccc(OS(=O)(=O)[18F])cc2)cc1)C(=O)O)C(=O)O
- Drug uptake [1]: 0.14%
- Drug uptake [2]: Not Active
- Stability [3]: Stable
- Drug uptake [4]: 0.65%
- Drug uptake [5]: Not Active
- Stability [6]: Stable
- Drug uptake [7]: 2.68 % ID/g

From ChEMBL document CHEMBL5550152, “Design, synthesis and evaluation of novel prostate-specific membrane antigen-targeted aryl [18F]fluorosulfate PET tracers” (Bioorg Med Chem, 2024)
